According to ChEMBL document CHEMBL5523743, “Identification of Psychoplastogenic Tropanes Lacking Muscarinic Activity” (J Med Chem, 2024):
Active and inactive are the calls of the source. No cut-off for these calls is given here.

Legend:
Neuron [1] = assay: Neuroplasticity effect in Wistar rat brain cortical neuron assessed as increase in neurite outgrowth at 0.25 to 10 uM after 72 hrs; format: functional, cell-based; settings: dose 0.25-10 µM
Neuron [2] = assay: Cytotoxicity against Wistar rat brain cortical neurons assessed as decrease in average number of neurites per neuron at 0.25 to 10 uM; format: toxicity, cell-based; settings: dose 0.25-10 µM
[3] = molecular target: T1, Muscarinic acetylcholine receptor M1 (Homo sapiens) (UniProt P11229); assay: Antagonist activity at recombinant human M1 receptor expressed in CHO-K1 cells incubated for 15 mins in presence of acetylcholine by aequorin assay; format: functional, cell-based
T1 sequence (whole entry): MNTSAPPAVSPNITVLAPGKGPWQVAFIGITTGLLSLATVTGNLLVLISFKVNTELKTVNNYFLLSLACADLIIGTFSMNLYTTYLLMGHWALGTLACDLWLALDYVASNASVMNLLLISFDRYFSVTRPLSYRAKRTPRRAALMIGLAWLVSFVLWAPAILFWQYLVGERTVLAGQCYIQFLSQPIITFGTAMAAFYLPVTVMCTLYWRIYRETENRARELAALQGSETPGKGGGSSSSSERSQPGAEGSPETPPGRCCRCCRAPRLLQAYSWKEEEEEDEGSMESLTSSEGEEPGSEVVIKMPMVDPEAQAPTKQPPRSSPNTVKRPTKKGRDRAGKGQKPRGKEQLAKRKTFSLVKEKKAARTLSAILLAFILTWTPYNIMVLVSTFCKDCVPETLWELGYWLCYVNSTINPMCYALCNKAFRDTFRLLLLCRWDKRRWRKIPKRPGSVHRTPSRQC

[4] = molecular target: T2, 5-hydroxytryptamine receptor 2C (Homo sapiens) (UniProt P28335); assay: Antagonist activity at recombinant human 5HT2CR expressed in CHO-K1 cells incubated for 60 mins in presence of alpha-Me-5HT by HTRF method; format: functional, cell-based
T2 sequence (whole entry): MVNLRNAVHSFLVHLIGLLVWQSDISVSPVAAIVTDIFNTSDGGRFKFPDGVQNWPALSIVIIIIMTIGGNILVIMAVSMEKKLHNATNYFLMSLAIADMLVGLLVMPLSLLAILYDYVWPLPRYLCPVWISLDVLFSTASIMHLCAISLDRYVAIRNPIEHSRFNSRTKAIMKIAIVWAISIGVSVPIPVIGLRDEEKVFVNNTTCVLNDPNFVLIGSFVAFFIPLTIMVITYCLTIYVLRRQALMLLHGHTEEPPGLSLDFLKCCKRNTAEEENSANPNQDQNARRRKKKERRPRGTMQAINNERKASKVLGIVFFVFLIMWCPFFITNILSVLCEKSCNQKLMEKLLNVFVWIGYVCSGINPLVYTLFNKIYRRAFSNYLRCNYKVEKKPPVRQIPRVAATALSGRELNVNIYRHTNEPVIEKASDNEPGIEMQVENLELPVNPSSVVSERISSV

[5] = molecular target: T3, Muscarinic acetylcholine receptor M4 (Homo sapiens) (UniProt P08173); assay: Antagonist activity at M4 receptor (unknown origin) incubated for 1 hr in presence of oxotremorine by GTPgamma[35S] based Topcount scintillation counting method; format: functional
T3 sequence (whole entry): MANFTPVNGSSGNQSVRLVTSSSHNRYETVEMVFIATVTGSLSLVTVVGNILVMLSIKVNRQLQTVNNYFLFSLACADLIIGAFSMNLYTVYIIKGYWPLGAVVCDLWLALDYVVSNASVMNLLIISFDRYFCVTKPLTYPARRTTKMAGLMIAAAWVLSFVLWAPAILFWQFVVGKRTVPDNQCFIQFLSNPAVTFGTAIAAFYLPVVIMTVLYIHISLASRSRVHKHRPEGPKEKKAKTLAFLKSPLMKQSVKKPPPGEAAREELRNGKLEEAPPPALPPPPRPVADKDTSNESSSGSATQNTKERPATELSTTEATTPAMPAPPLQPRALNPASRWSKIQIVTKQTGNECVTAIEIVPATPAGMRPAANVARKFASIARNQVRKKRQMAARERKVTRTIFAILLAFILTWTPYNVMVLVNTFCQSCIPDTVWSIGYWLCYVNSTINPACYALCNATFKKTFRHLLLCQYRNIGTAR

[6] = molecular target: T4, Muscarinic acetylcholine receptor M2 (Homo sapiens) (UniProt P08172); assay: Agonist activity at M2 receptor (unknown origin) by GTPgamma[35S] based Topcount scintillation counting method; format: functional
T4 sequence (whole entry): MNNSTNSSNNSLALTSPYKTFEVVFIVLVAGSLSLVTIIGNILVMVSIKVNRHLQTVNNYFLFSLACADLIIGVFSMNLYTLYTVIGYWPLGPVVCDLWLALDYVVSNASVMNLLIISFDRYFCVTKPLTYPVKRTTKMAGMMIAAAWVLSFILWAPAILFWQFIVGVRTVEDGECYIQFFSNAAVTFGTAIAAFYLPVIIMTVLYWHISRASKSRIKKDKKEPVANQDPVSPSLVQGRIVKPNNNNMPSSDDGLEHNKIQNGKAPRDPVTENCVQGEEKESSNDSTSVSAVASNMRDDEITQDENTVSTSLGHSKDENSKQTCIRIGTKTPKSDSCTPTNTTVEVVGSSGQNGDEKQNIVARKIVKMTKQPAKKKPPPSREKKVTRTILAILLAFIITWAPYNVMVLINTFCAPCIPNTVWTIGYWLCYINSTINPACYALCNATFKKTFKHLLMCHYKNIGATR

[7] = molecular target: T1, Muscarinic acetylcholine receptor M1 (Homo sapiens); assay: Agonist activity at recombinant human M1 receptor expressed in CHO-K1 cells incubated for 15 mins by aequorin assay; format: functional, cell-based
[8] = molecular target: T4, Muscarinic acetylcholine receptor M2 (Homo sapiens); assay: Antagonist activity at M2 receptor (unknown origin) incubated for 1 hr in presence of acetylcholine by GTPgamma[35S] based Topcount scintillation counting method; format: functional
[9] = molecular target: T5, Muscarinic acetylcholine receptor M5 (Homo sapiens) (UniProt P08912); assay: Displacement of [3H]-Scopolamine from M5 receptor (unknown origin) by Topcount scintillation counting method
T5 sequence (whole entry): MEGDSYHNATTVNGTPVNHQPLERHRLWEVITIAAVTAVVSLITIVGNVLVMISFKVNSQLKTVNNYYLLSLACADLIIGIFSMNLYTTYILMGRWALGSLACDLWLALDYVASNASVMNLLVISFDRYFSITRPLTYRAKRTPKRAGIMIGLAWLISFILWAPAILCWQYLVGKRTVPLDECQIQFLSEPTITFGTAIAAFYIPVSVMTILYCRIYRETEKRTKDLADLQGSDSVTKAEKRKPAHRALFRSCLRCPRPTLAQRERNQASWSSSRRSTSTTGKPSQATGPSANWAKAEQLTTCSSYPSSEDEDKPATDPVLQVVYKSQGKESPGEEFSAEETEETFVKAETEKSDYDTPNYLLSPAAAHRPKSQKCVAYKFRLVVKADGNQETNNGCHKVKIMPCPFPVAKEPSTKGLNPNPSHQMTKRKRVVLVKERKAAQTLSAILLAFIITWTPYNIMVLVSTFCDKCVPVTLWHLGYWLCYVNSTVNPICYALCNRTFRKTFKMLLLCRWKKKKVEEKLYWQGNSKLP

[10] = molecular target: T2, 5-hydroxytryptamine receptor 2C (Homo sapiens); assay: Agonist activity at recombinant human 5HT2CR expressed in CHO-K1 cells incubated for 60 mins by HTRF method; format: functional, cell-based
[11] = molecular target: 5-hydroxytryptamine receptor 2A (Homo sapiens) (UniProt P28223); assay: Antagonist activity at recombinant human 5HT2AR expressed in CHO-K1 cells incubated for 60 mins in presence of alpha-Me-5HT by HTRF method; format: functional, cell-based
Sequence of 5-hydroxytryptamine receptor 2A (Homo sapiens) (P28223 whole entry): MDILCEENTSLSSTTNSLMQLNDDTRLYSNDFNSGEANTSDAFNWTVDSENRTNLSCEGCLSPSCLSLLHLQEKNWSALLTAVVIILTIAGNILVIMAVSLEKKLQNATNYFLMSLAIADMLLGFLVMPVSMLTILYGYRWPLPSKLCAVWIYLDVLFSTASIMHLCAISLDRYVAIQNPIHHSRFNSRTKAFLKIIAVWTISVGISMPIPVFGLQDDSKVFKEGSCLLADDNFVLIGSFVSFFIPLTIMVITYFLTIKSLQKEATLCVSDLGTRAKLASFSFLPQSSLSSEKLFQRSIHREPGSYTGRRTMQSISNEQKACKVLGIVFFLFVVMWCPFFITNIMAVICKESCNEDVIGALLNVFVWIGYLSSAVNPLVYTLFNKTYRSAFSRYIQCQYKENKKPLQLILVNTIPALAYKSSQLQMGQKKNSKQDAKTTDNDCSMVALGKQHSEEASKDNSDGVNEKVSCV

[12] = molecular target: T1, Muscarinic acetylcholine receptor M1 (Homo sapiens); assay: Displacement of [3H]-Scopolamine from M1 receptor (unknown origin) by Topcount scintillation counting method
[13] = molecular target: T3, Muscarinic acetylcholine receptor M4 (Homo sapiens); assay: Agonist activity at M4 receptor (unknown origin) by GTPgamma[35S] based Topcount scintillation counting method; format: functional
[14] = molecular target: Muscarinic acetylcholine receptor M3 (Homo sapiens) (UniProt P20309); assay: Agonist activity at recombinant human M3 receptor expressed in CHO-K1 cells incubated for 15 mins by aequorin assay; format: functional, cell-based
Sequence of Muscarinic acetylcholine receptor M3 (Homo sapiens) (P20309 whole entry, looked up): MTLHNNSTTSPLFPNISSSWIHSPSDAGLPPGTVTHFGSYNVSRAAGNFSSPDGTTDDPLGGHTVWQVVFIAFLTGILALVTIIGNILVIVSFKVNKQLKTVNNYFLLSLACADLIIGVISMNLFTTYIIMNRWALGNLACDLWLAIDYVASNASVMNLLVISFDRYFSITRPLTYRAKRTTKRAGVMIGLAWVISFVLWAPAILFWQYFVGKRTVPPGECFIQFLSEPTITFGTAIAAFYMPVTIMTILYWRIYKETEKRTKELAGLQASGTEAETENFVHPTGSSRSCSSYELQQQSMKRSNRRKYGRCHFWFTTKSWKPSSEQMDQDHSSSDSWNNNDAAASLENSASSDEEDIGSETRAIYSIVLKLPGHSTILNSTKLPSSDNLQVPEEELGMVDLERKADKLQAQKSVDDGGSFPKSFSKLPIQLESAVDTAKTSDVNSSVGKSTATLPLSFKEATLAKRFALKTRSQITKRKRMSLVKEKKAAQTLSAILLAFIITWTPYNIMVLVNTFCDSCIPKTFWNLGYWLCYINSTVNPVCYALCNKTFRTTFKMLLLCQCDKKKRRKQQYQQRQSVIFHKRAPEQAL

[15] = molecular target: 5-hydroxytryptamine receptor 2A (Homo sapiens) (UniProt P28223); assay: Agonist activity at recombinant human 5HT2AR expressed in CHO-K1 cells incubated for 60 mins by HTRF method; format: functional, cell-based
[16] = molecular target: T4, Muscarinic acetylcholine receptor M2 (Homo sapiens); assay: Displacement of [3H]-Scopolamine from M2 receptor (unknown origin) by Topcount scintillation counting method
[17] = molecular target: T2, 5-hydroxytryptamine receptor 2C (Homo sapiens); assay: Displacement of [3H]-DOI from 5HT2CR (unknown origin) by Topcount scintillation counting method
[18] = molecular target: 5-hydroxytryptamine receptor 2A (Homo sapiens) (UniProt P28223); assay: Displacement of [3H]-DOI from 5HT2AR (unknown origin) by Topcount scintillation counting method
[19] = molecular target: Muscarinic acetylcholine receptor M3 (Homo sapiens) (UniProt P20309); assay: Displacement of [3H]-Scopolamine from M3 receptor (unknown origin) by Topcount scintillation counting method
[20] = molecular target: T3, Muscarinic acetylcholine receptor M4 (Homo sapiens); assay: Displacement of [3H]-Scopolamine from M4 receptor (unknown origin) by Topcount scintillation counting method
[21] = molecular target: T5, Muscarinic acetylcholine receptor M5 (Homo sapiens); assay: Antagonist activity at recombinant human M5 receptor expressed in CHO-K1 cells incubated for 15 mins in presence of acetylcholine by aequorin assay; format: functional, cell-based
[22] = molecular target: T5, Muscarinic acetylcholine receptor M5 (Homo sapiens); assay: Agonist activity at recombinant human M5 receptor expressed in CHO-K1 cells incubated for 15 mins by aequorin assay; format: functional, cell-based
[23] = molecular target: Muscarinic acetylcholine receptor M3 (Homo sapiens) (UniProt P20309); assay: Antagonist activity at recombinant human M3 receptor expressed in CHO-K1 cells incubated for 15 mins in presence of acetylcholine by aequorin assay; format: functional, cell-based
Neuron [24] = assay: Neuroplasticity effect in Wistar rat brain cortical neuron assessed as increase in neurite outgrowth after 72 hrs; format: functional, cell-based; settings: dose 0.25-10 µM

COc1ccc([C@H]2C[C@@H]3CCC[C@H]2N3C)cc1
Activity (Neuron [1]): inactive | Activity (Neuron [2]): Toxic

COc1ccc(CCN2[C@@H]3CCC[C@H]2CC3)cc1
Activity (Neuron [1]): inactive | Activity (Neuron [2]): Toxic

COc1ccc2[nH]c3c(c2c1)[C@H]1CC[C@@H](C3)N1C
Activity (Neuron [1]): inactive

CN1[C@H]2CCC[C@@H]1[C@@H](c1ccccc1)C2
Activity (Neuron [1]): inactive

Fc1ccccc1CCN1[C@@H]2CCC[C@H]1CC2
Activity (Neuron [1]): Active

CN1[C@@H]2CCC[C@H]1[C@H]1[C@@H]2N1c1ccc2[nH]ccc2c1
Activity (Neuron [1]): inactive

COc1cccc([C@H]2C[C@@H]3CCC[C@H]2N3C)c1
Activity ([3]; filed as antagonist): Active | Activity (Neuron [1]): Active

CN1[C@H]2C[C@H](OC(=O)c3ccccc3)C[C@@H]1[C@@H](c1ccccc1)C2
Activity ([3]; filed as antagonist): Active | Activity (Neuron [1]): inactive

CN1[C@@H]2CCC[C@H]1[C@H]1[C@@H]2N1c1cccnc1
Activity (Neuron [1]): inactive

COc1cccc(CCN2[C@@H]3CCC[C@H]2CC3)c1
Activity (Neuron [1]): Active

CN1[C@H]2CC[C@@H]1C=C(c1c[nH]c3ccccc13)C2
Activity ([4]; filed as antagonist): Active | Activity (Neuron [1]): inactive

CN1[C@H]2CCC[C@@H]1[C@@H](c1ccc(F)cc1)C2
Activity (Neuron [1]): inactive

COc1ccc(CN2[C@H]3CC(=O)C[C@@H]2[C@@H](O)C3)cc1
Activity [5]: inactive | Activity [6]: inactive | Activity [7]: inactive | Activity [8]: inactive | Activity [9]: inactive | Activity [3]: inactive | Activity [10]: inactive | Activity [11]: inactive | Activity [12]: inactive | Activity [13]: inactive | Activity [14]: inactive | Activity [4]: inactive | Activity [15]: inactive | Activity [16]: inactive | Activity [17]: inactive | Activity [18]: inactive | Activity [19]: inactive | Activity [20]: inactive | Activity (Neuron [1]): Active | Activity [21]: inactive | Activity [22]: inactive | Activity [23]: inactive

CN1[C@@H]2CC[C@H]1C[C@H](OC(=O)/C=C/c1ccccc1)C2
Activity (Neuron [24]): Dose-Dependent Effect
